The target in assay [1] is T1, DNA-dependent protein kinase (DNA-PK) (Homo sapiens, UniProt P78527).
T1 construct: endogenous in cells; host or cells: Jurkat, clone E6-1 (ATCC TIB-152) cell lysate
Put plainly: kinobeads assay, DNA-PK. Format: binding. The following applies: kinobeads assay, Table 6; read-out: Inhibition values (IC50) DNAPK. Summed up:
(§1)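 Competitive binding in Jurkat cell lysate (5 mg/ml total protein): test compounds at various concentrations competed with beads bearing immobilized phenylmorpholin-chromen ligand. Bead-bound kinases were eluted and quantified by antibody dot blot with infrared detection; IC50 values came from dose-response curves.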

Assay [2] deals with T2, PI3Kalpha (PI3Ka) (Homo sapiens, UniProt P42336).
T2 construct: endogenous in cells; host or cells: cell lysate
Put plainly: kinobeads assay, PI3Kalpha. The class given is binding. Conditions: kinobeads assay, Table 6. Summed up: (§2)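 Cell lysate aliquots are incubated with compound over a concentration range and with an affinity matrix of immobilized phenylmorpholin-chromen ligand. Beads are then removed, bound proteins eluted, and each kinase is quantified by multiplexed immunodetection to derive IC50 values.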

Assay [3] concerns the target T3, PI3 Kbeta (PI3 Kb) (Homo sapiens, UniProt P42338).
T3 construct: endogenous in cells; host or cells: cell lysate
Put plainly: kinobeads assay, PI3Kbeta. Format: binding. The following applies: kinobeads assay, Table 6; read-out: Inhibition values (IC50) PI3Kb. Summed up:
as §2

Assay [4] has as its target T4, PI3 Kgamma (PI3 Kg) (Homo sapiens, UniProt P48736).
T4 construct: endogenous in cells; host or cells: cell lysate
Put plainly: kinobeads assay, PI3Kgamma. Format: binding. The following applies: kinobeads assay, Table 6; read-out: Inhibition values (IC50) PI3Kg. The method, boiled down:
as §2

In assay [5] the test system is S6RP serine-240/244 phosphorylation. Nature of the assay: In vitro Phospho-S6 cellular assay (pS6RP S240/244) in HEK293T/17 cells. Format: cell-based. Conditions: Homo sapiens, 2 hours, read-out: pS6 IC50. The text has this:
Activation of mTOR signaling results in phosphorylation of several downstream targets. In cells, mTOR exists in two different protein complexes. The mTOR Complex-1 (mTORC1) phosphorylates and activates S6 Kinase 1 (S6K1) and S6 Kinase 2 (S6K2) (also known as p70S6K) which then phosphorylate S6 Ribosomal Protein (S6RP) (also known as RPS6)3. S6RP is phosphorylated on serine 235, serine 236, serine 240 and serine 244 by both pS6K1 and pS6K2. The mTOR Complex-2 (mTORC2) phosphorylates AKT on serine 473 which activates the AKT signaling pathway.
The assay measures a test compound's inhibition of S6RP serine-240/244 phosphorylation and inhibition of Akt serine-473 phosphorylation in human embryonic kidney derived HEK293T/17 cells (ATCC CRL-11268).
The HEK293T/17 cell line is maintained in DMEM media (Invitrogen catalogue number 41965-039) supplemented with 10% FCS at 37° C. in a 5% CO2 humidified incubator.
Cells are seeded in 96-well plates at 40,000 cells/well (pS6RP S240/244 assay) or 80,000 cells/well (pAkt S473 assay) in 90 μl growth media (DMEM, 2% FCS). Plates are incubated for 1 hour in a humidified incubator to allow the cells to adhere. Cells are treated with 8 concentrations of test compounds or DMSO alone for controls (final DMSO concentration 0.1%) and incubated at 37° C. for 2 hours. Then 20 μl of 5× concentrated lysis buffer (750 mM NaCl, 100 mM Tris pH7.4, 5 mM ADTA, 5 mM EGTA, 5% Triton X-100) is added, plates are sealed and incubated for 15 minutes at 4° C. with gentle shaking. After cell lysis, 25 μl cell lysate is transferred to a MesoScale plate coated with an antibody to pS6RP Ser240/244 (MesoScale Discovery K150DGD-3) or an antibody to pAkt Ser 473 (MesoScale Discovery K151DGD-3). Plates have been blocked before by incubation with 150 μl MesoScale Discovery Blocking Solution-A for 1 hour at room temperature followed by washing with 150 μl 1× Tris wash buffer per well. After the transfer of the cell lysate to the MSD plate, the pS6RP (or pAkt) protein is captured on the coated antibody by incubation at room temperature for 1 hour with gentle shaking. After the capture step the plate is washed three times with 150 μl of 1× Tris wash buffer per well. Then 25 μl detection antibody conjugated with a Sulfo-Tag is added and incubated for 1 hour at room temperature with gentle shaking. Subsequently the antibody solution is removed and the plate is washed 3 times with 150 μl×Tris wash buffer per well and 150 μl Read buffer is added. The plates are analysed on a MSD 2400 Plate Reader (MesoScale Discovery). Data analysis is performed using nonlinear regression for a sigmoidal dose-response with a variable slope.

Assay [6] has as its target T5, PI3K delta (PI3 Kd) (Homo sapiens, UniProt O00329).
T5 construct: endogenous in cells; host or cells: Jurkat, clone E6-1 (ATCC TIB-152) cell lysate
Put plainly: kinobeads assay, PI3K delta. Format: binding. Conditions: kinobeads assay, Table 6; read-out: Inhibition values (IC50) PI3Kd. Summed up:
as §1

The source of these data is patent US8785457B2 (Cellzome Limited, priority 2009, dated 2014).

T2 sequence (P42336 whole entry): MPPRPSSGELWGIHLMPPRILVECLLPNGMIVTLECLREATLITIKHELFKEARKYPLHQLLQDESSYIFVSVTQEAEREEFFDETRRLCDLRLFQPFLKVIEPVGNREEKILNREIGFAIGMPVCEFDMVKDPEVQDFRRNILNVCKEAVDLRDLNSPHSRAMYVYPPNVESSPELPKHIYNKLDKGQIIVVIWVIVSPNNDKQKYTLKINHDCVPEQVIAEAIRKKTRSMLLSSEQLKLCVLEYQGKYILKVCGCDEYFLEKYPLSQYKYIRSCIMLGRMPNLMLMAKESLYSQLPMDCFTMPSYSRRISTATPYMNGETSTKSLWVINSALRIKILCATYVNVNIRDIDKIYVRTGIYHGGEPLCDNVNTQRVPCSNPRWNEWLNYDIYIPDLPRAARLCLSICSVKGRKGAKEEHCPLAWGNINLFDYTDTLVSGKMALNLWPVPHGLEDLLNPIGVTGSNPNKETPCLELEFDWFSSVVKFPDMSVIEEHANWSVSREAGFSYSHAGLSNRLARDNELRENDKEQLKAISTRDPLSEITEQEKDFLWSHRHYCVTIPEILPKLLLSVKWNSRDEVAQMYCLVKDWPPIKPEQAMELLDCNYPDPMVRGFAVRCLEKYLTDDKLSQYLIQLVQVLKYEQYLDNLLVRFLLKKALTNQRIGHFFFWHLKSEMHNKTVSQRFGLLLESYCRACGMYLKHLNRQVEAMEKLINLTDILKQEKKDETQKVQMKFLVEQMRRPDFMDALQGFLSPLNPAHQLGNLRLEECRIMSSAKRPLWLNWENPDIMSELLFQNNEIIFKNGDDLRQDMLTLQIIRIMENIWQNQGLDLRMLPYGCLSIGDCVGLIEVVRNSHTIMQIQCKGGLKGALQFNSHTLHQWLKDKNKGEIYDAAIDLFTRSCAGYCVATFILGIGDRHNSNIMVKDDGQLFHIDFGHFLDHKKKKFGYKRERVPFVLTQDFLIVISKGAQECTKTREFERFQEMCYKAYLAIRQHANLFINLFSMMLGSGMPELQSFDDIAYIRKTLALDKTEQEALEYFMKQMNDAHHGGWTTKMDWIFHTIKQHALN
T2 sequence (P27986 whole entry partner): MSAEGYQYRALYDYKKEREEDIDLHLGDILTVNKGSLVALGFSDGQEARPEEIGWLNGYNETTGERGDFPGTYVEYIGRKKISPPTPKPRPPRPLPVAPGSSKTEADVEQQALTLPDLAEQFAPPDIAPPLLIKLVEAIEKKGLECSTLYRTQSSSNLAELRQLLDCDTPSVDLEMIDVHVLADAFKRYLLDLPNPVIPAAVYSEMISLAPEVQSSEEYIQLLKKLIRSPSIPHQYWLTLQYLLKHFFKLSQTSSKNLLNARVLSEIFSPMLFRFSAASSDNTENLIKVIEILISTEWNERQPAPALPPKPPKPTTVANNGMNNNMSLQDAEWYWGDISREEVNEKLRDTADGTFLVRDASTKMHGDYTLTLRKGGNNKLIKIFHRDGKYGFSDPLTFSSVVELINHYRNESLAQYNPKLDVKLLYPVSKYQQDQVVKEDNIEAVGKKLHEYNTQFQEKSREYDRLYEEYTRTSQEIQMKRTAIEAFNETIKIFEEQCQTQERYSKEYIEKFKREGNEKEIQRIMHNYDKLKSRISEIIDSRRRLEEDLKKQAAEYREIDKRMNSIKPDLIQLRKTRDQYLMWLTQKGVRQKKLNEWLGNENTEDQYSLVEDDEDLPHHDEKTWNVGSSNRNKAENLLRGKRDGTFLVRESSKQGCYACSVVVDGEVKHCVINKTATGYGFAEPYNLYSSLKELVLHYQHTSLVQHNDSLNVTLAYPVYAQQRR
T3 sequence (P42338 whole entry): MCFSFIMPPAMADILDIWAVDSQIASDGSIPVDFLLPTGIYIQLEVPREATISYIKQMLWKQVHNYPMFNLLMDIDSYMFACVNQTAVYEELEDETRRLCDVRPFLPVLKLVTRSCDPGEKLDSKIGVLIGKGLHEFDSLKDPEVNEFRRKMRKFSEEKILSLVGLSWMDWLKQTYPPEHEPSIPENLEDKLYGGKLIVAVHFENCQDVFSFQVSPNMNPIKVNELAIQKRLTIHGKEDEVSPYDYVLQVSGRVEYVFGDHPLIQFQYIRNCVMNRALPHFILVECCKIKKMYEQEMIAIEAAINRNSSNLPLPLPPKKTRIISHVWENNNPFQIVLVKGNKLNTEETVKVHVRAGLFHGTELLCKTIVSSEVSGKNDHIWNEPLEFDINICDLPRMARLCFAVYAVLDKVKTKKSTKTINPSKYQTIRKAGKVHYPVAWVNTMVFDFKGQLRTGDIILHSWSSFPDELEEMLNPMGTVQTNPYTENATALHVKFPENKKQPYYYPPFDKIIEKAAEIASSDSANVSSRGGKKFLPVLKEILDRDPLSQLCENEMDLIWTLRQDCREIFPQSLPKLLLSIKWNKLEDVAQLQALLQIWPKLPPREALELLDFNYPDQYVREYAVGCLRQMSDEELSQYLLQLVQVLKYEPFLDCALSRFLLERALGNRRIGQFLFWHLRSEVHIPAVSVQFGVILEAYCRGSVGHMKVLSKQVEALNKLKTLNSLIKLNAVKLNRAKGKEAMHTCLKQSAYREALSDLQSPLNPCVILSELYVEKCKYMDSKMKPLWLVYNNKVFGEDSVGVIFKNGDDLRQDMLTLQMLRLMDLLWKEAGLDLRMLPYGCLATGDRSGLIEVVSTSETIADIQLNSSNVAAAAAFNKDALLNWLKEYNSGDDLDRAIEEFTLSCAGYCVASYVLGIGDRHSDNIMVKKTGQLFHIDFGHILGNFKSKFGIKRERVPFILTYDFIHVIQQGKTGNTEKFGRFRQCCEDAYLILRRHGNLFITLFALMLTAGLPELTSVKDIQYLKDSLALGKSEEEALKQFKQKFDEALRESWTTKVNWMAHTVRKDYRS
T3 sequence (P27986 whole entry partner): as the sequence (P27986 whole entry partner) above
T4 sequence (P48736 whole entry): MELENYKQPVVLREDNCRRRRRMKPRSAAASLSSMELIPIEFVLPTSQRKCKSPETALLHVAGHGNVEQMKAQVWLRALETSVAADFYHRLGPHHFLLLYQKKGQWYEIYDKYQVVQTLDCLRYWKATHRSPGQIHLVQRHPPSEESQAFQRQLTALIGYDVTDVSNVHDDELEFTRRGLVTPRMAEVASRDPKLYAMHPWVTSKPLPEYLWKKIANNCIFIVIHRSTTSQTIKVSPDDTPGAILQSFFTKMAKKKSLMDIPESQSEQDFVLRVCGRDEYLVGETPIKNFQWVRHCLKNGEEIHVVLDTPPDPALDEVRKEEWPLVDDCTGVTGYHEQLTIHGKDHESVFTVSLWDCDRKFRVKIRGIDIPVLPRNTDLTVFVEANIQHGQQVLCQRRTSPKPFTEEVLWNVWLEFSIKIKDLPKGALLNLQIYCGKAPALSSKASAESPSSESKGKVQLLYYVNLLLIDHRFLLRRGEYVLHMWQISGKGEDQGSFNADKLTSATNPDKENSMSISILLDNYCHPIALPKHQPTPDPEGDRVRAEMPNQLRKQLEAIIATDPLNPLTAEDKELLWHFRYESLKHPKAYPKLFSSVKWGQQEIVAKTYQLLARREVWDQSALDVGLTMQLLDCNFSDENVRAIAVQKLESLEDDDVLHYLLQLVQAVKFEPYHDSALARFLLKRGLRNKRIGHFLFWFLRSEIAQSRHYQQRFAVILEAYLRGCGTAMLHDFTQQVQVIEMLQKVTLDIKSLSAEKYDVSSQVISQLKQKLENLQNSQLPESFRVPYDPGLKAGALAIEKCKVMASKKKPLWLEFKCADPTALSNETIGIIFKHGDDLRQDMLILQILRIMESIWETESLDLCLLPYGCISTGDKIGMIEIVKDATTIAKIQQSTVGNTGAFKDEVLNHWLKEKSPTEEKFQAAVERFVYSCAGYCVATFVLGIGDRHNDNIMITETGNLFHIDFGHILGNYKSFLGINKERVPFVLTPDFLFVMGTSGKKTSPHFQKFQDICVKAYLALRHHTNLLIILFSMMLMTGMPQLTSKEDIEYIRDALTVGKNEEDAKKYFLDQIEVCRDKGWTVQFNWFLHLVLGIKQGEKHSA
T5 sequence (O00329 whole entry): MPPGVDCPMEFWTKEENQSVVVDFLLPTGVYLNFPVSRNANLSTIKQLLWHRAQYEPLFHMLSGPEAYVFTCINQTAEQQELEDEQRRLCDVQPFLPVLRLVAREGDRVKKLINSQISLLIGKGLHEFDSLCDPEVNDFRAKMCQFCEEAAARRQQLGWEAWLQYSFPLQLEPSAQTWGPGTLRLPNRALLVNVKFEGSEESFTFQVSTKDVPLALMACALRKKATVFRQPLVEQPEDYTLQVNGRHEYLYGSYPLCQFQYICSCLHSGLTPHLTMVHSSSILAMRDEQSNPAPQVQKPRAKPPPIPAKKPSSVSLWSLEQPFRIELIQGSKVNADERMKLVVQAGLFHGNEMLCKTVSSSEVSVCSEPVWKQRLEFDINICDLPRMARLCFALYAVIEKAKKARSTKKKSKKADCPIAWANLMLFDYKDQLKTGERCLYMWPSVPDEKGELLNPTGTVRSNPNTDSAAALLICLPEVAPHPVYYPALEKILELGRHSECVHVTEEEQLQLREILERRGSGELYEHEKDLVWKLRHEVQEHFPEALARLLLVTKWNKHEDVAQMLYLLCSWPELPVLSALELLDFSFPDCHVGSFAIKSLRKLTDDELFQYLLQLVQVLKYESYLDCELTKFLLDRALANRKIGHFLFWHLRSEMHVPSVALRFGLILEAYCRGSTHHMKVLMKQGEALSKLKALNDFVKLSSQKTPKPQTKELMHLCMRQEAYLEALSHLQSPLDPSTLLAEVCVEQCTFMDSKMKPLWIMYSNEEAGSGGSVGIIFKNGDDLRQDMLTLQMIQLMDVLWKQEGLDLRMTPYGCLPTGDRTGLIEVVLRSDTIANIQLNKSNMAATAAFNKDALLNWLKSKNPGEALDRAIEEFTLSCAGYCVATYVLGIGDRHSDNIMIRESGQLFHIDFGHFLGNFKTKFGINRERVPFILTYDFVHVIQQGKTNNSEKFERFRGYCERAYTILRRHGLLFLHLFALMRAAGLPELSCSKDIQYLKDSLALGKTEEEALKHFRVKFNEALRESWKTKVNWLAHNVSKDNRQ
T5 sequence (P27986 whole entry partner): as the sequence (P27986 whole entry partner) above

For `CCNC(=O)Nc1ccc(-c2nc3c(c(N4CCOCC4)n2)CN(C(=O)NCC)C3)cc1` [Example 79, N-ethyl-2-(4-(3-ethylureido)phenyl)-4-morpholino-5H-pyrrolo[3,4-d]pyrimidine-6(7H)-carboxamide], the half-maximal inhibitory concentration (IC50) – broadly, the concentration that gives 50% inhibition – is 1 to 10 µM in assay [1]; 1 to 10 µM in assay [2] (read-out: Inhibition values (IC50) PI3Ka); greater than 10 µM in assay [3]; greater than 10 µM in assay [4]; 0.589 µM in assay [5]; 1 to 10 µM in assay [6].
On to `CCNC(=O)Nc1ccc(-c2nc3c(c(N4CCOCC4)n2)CCNC3)cc1` [Example 82, 1-ethyl-3-(4-(4-morpholino-5,6,7,8-tetrahydropyrido[3,4-d]pyrimidin-2-yl)phenyl)urea], for which the IC50 was greater than 10 µM in assay [1]; greater than 10 µM in assay [3]; greater than 10 µM in assay [4]; 0.991 µM in assay [5]; greater than 10 µM in assay [6]. The “Inhibition values (IC50) PI3Ka” value in assay [2] is recorded as “D (D >10 μM)”.
With `CCNC(=O)Nc1ccc(-c2nc3c(c(N4CCOCC4)n2)CCN(C(=O)OC)C3)cc1` [Example 95, methyl 2-(4-(3-ethylureido)phenyl)-4-morpholino-5,6-dihydropyrido[3,4-d]pyrimidine-7(8H)-carboxylate], the IC50 is greater than 10 µM in assay [1]; greater than 10 µM in assay [3]; greater than 10 µM in assay [4]; 0.218 µM in assay [5]; greater than 10 µM in assay [6]. Moreover, in assay [2], the “Inhibition values (IC50) PI3Ka” value was “D (D >10 μM)”.
Regarding `CCNC(=O)Nc1ccc(-c2nc3c(c(N4CCOC[C@@H]4C)n2)CCN(C(C)C)C3)cc1.O=CO` [Example 75, (S)-1-ethyl-3-(4-(7-isopropyl-4-(3-methylmorpholino)-5,6,7,8-tetrahydropyrido[3,4-d]pyrimidin-2-yl)phenyl)urea formate], the IC50 was greater than 10 µM in assay [1]; greater than 10 µM in assay [3]; greater than 10 µM in assay [4]; 0.082 µM in assay [5]; greater than 10 µM in assay [6]. The “Inhibition values (IC50) PI3Ka” value in assay [2] was “D (D >10 μM)”.
